Results: patent publication US20230310445A1, “LOX ENZYME INHIBITING METHODS AND COMPOSITIONS” (ANOVIA BIOSCIENCES, INC., priority 2020, published 2023)

Columns and labels:
[1] = target: T1, Recombinant human LOXL3 (lysyl oxidase like 3) (Homo sapiens, UniProt P58215); assay: LOXL3 inhibition assay (fluorometric, cadaverine/Amplex Red/HRP); assay type: biochemical; settings: IC50 class; recombinant human LOXL3, cadaverine substrate; read-out: Activity Range LOXL3
T1 construct: purchased R&D systems
T1 sequence (P58215 26-753): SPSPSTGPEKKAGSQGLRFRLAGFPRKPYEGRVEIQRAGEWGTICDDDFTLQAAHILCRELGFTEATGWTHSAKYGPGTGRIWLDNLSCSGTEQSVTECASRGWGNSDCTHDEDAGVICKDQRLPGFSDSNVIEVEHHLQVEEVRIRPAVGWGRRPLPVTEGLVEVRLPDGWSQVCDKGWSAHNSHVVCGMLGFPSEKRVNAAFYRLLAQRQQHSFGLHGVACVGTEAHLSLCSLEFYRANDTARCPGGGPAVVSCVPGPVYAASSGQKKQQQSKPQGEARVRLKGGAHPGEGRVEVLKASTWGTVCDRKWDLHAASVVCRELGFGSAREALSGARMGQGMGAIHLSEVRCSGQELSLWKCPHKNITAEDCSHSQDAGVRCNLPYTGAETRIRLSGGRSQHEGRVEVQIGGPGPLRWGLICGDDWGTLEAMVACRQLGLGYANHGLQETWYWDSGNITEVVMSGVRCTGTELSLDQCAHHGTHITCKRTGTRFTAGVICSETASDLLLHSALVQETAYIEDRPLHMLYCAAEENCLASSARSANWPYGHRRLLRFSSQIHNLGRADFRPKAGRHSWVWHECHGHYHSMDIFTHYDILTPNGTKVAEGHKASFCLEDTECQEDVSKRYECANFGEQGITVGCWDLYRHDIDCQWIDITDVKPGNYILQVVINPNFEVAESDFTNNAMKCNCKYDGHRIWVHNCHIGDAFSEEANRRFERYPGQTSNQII
Experimental: The ability of compounds to inhibit one or more of the lysyl oxidases LOXL2 and/or LOXL3 was determined using a fluorometric assay. This assay measures the activity of lysyl oxidases by coupling the reaction with horseradish peroxidase-catalyzed […]. The activity assay protocol uses cadaverine as substrate that releases hydrogen peroxide upon transformation by the specific LOX family enzyme present in the sample. Hydrogen peroxide is in turn detected using a red fluorescence substrate for HRP-coupled reactions (Amplex Red Enzyme Assays, Thermo Scientific Fisher). This leads to increase in fluorescence that can be easily detected at Ex/Em=540/590 nm in a fluorescence microplate reader.
Enzymes: Recombinant human LOXL2 (lysyl oxidase like 2) and recombinant human LOXL3 (lysyl oxidase like 3) were purchased from R&D systems and assays were performed in 1.2 M urea, 50 mM sodium borate buffer pH 8.0, and 10 mM CaCl.
Reaction: Final concentration in the LOXL2 and LOXL3 assays were as following and performed in a total volume of […]:
Experimental procedure: 5 μl of freshly prepared reaction buffer were delivered to reaction wells. Compounds were resuspended in 100% DMSO at 10 mM and delivered into buffer using acoustic technology (Echo550; nanoliter range). A 3× solution of LOXL2 or LOXL3 in reaction buffer was prepared (“enzyme solution”) and 5 μL of enzyme solution was added into the reaction wells. Buffer only was added to column 1 for no protein control. Reactions were incubated for 30 minutes at 37° C. A 3×mixture of cadaverine, Amplex Red, and HRP (“Substrate/Detection Mix) was prepared and subsequently 5 μL of the mixture added to each reaction well. Progress of reactions was monitored for 60 minutes at 37° C. using Clariostar plate reader (ex 530-12, ems 600-40). For all activity assays, pan-LOX inhibitor CCT365623 (Tang et al, 2017) and LOXL2/LOXL3 inhibitor PAT-1251 (PharmaKea) were included as standards.
Data analysis: Slope of the linear portion of the progress curve was calculated using Clariostar software. Typical analysis interval was between 8-30 min, but varied between experiments. The background subtracted signals (No protein wells are considered as background) were converted to % activity relative to DMSO controls. Data was analyzed using GraphPad Prism 4 with “sigmoidal dose-response (variable slope)”; 4 parameters with Hill Slope. Constraints: Bottom=Constant equal to 0. Top=Must be less than 120.

[2] = target: T2, Recombinant human LOXL2 (lysyl oxidase like 2) (Homo sapiens, UniProt Q9Y4K0); assay: LOXL2 inhibition assay (fluorometric, cadaverine/Amplex Red/HRP); assay type: biochemical; settings: IC50 class; recombinant human LOXL2, cadaverine substrate; read-out: Activity Range LOXL2
T2 construct: purchased R&D systems
T2 sequence (Q9Y4K0 26-774): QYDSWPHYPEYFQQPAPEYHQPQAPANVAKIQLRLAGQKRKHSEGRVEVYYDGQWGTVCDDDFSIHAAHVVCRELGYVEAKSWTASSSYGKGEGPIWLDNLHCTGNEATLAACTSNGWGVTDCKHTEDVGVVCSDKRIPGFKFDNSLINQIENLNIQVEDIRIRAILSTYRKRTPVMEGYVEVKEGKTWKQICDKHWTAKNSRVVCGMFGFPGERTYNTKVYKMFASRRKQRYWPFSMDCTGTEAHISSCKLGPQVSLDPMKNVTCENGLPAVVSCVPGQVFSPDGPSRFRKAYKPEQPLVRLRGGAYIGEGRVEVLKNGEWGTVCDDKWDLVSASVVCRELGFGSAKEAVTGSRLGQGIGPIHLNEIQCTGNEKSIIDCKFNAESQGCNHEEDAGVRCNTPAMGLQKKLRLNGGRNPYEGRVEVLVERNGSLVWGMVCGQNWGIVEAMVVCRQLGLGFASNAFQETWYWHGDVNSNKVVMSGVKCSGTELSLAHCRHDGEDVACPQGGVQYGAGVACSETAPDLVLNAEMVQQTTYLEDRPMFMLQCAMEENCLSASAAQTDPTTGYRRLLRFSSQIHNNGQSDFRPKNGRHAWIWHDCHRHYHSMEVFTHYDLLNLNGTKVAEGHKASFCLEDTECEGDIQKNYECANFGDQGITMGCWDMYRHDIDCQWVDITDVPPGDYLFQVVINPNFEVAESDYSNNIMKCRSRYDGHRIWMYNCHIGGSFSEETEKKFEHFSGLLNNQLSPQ
In short: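 Both enzymes assayed in 1.2 M urea, 50 mM sodium borate pH 8.0, 10 mM CaCl, with 30 min compound–enzyme preincubation at 37° C before cadaverine/Amplex Red/HRP addition. Fluorescence followed 60 min at 37° C; linear-slope rates, background-subtracted, as % of DMSO control, fitted by 4-parameter variable-slope curve (bottom fixed at 0).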

Row | SMILES | IC50 [1] | IC50 [2]
1 | NCc1ccnc(S(=O)(=O)N2C[C@@H](C(=O)N3CCS(=O)(=O)CC3)C[C@@H](C3CCCCC3)C2)c1.O=C(O)C(F)(F)F (racemic) [Example 146, cis-(1-((4-(Aminomethyl)pyridin-2-yl)sulfonyl)-5-cyclohexylpiperidin-3-yl)(1,1-dioxidothiomorpholino)methanone 2,2,2-trifluoroacetate] | ≤ 500 nM | ≤ 500 nM
2 | NCc1ccnc(S(=O)(=O)N2C[C@@H](C(=O)N3CCOCC3)C[C@@H](c3ccccc3)C2)c1 (relative stereo) [Example 133, cis-(1-((4-(Aminomethyl)pyridin-2-yl)sulfonyl)-5-phenylpiperidin-3-yl)(morpholino)methanone 2,2,2-trifluoroacetate] | ≤ 500 nM | ≤ 500 nM
3 | CN(C)C(=O)[C@H]1C[C@@H](C2CCCCC2)CN(S(=O)(=O)c2cccc(CN)c2)C1 (relative stereo) [Example 138, cis-1-((3-(Aminomethyl)phenyl)sulfonyl)-5-cyclohexyl-N,N-dimethylpiperidine-3-carboxamide 2,2,2-trifluoroacetate] | 1000 to 30000 nM | ≤ 500 nM

Next, values leading:

Row | IC50 [1] | IC50 [2] | SMILES
4 | 500 to 1000 nM | ≤ 500 nM | NCc1ccnc(S(=O)(=O)N2C[C@@H](C(=O)N3CCOCC3)C[C@@H](c3ccccc3)C2)c1 [Example 133A, ((3S,5S)-1-((4-(aminomethyl)pyridin-2-yl)sulfonyl)-5-phenylpiperidin-3-yl)(morpholino)methanone 2,2,2-trifluoroacetate]
5 | ≤ 500 nM | ≤ 500 nM | NCc1ccnc(S(=O)(=O)N2C[C@H](C(=O)N3CCOCC3)C[C@H](c3ccccc3)C2)c1 [Example 133B, ((3R,5R)-1-((4-(aminomethyl)pyridin-2-yl)sulfonyl)-5-phenylpiperidin-3-yl)(morpholino)methanone 2,2,2-trifluoroacetate]
